# From ChEMBL document CHEMBL6078713, “Synthesis and mechanistic studies of 4-aminoquinoline-Isatin molecular hybrids and Schiff's bases as promising antimicrobial agents” (Eur J Med Chem, 2025)
# Active and inactive are the calls of the source. The calls are words filed in the database; no cut-off is given here.
# How the values were obtained:
# Enterococcus faecalis [1] = experiment: Antibacterial activity against Enterococcus faecalis MTCC 439 assessed as inhibition of bacterial growth at 200 ug/ml incubated overnight by spectrophotometry relative to control; format: functional
# Escherichia coli [2] = experiment: Antibacterial activity against Escherichia coli MTCC 443 assessed as diameter of zone of inhibition at 500 ug/ml by agar disk diffusion method; format: functional; settings: read-out: DIZ
# Pseudomonas aeruginosa [3] = experiment: Antibacterial activity against Pseudomonas aeruginosa MTCC 2453 assessed as diameter of zone of inhibition at 500 ug/ml by agar disk diffusion method; format: functional; settings: read-out: DIZ
# Enterococcus faecalis [4] = experiment: Ratio of MBC for antibacterial activity against Enterococcus faecalis MTCC 439 to MIC for bactericidal activity against Enterococcus faecalis MTCC 439; format: functional
# Bacillus subtilis [5] = experiment: Antibacterial activity against Bacillus subtilis MTCC 736 assessed as inhibition of bacterial growth at 200 ug/ml incubated overnight by spectrophotometry relative to control; format: functional
# Staphylococcus aureus [6] = experiment: Antibacterial activity against Staphylococcus aureus MTCC 902 assessed as diameter of zone of inhibition at 500 ug/ml by agar disk diffusion method; format: functional; settings: read-out: DIZ
# Escherichia coli [7] = experiment: Synergistic antibacterial activity against Escherichia coli MTCC 443 assessed as fractional inhibitory concentration index incubated overnight in presence of ciprofloxacin by microdilution checkerboard assay; format: functional
# Escherichia coli [8] = experiment: Bacteriostatic activity against Escherichia coli MTCC 443 assessed as reduction in bacterial growth at 2 times MIC measured upto 24 hrs by absorbance based assay; format: functional, organism-based
# Pseudomonas aeruginosa [9] = experiment: Antibacterial activity against Pseudomonas aeruginosa MTCC 2453 assessed as inhibition of bacterial growth at 200 ug/ml incubated overnight by spectrophotometry relative to control; format: functional
# Pseudomonas aeruginosa [10] = experiment: Antibacterial activity against Pseudomonas aeruginosa MTCC 2453 assessed as inhibition of bacterial growth incubated overnight by serial dilution based spectrophotometer; format: functional
# Staphylococcus aureus [11] = experiment: Antibacterial activity against Staphylococcus aureus MTCC 902 assessed as inhibition of bacterial growth at 200 ug/ml incubated overnight by spectrophotometry relative to control; format: functional
# Bacillus subtilis [12] = experiment: Synergistic antibacterial activity against Bacillus subtilis MTCC 736 assessed as fractional inhibitory concentration index incubated overnight in presence of ciprofloxacin by microdilution checkerboard assay; format: functional
# Bacillus subtilis [13] = experiment: Antibacterial activity against Bacillus subtilis MTCC 736 assessed as diameter of zone of inhibition at 500 ug/ml by agar disk diffusion method; format: functional; settings: read-out: DIZ
# Escherichia coli [14] = experiment: Antibacterial activity against Escherichia coli clinical isolate ECJH11 assessed as diameter of zone of inhibition by disk diffusion assay; format: functional
# Escherichia coli [15] = experiment: Antibacterial activity against Escherichia coli clinical isolate ECJH8 assessed as diameter of zone of inhibition by disk diffusion assay; format: functional
# Escherichia coli [16] = experiment: Antibacterial activity against Escherichia coli clinical isolate ECJH10 assessed as diameter of zone of inhibition by disk diffusion assay; format: functional
# Escherichia coli [17] = experiment: Antibacterial activity against Escherichia coli clinical isolate ECJH16 assessed as diameter of zone of inhibition by disk diffusion assay; format: functional
# Escherichia coli [18] = experiment: Antibacterial activity against Escherichia coli clinical isolate ECJH9 assessed as diameter of zone of inhibition by disk diffusion assay; format: functional
# Pseudomonas aeruginosa [19] = experiment: Antibacterial activity against Pseudomonas aeruginosa MTCC 2453 assessed as diameter of zone of inhibition at 0.5 times MIC incubated overnight by disk diffusion method; format: functional
# Escherichia coli [20] = experiment: Antibacterial activity against Escherichia coli clinical isolate ECJH2 assessed as diameter of zone of inhibition by disk diffusion assay; format: functional
# Escherichia coli [21] = experiment: Antibacterial activity against Escherichia coli clinical isolate ECJH23 assessed as diameter of zone of inhibition by disk diffusion assay; format: functional
# Escherichia coli [22] = experiment: Antibacterial activity against Escherichia coli clinical isolate ECJH6 assessed as diameter of zone of inhibition by disk diffusion assay; format: functional
# Escherichia coli [23] = experiment: Antibacterial activity against Escherichia coli clinical isolate ECJH4 assessed as diameter of zone of inhibition by disk diffusion assay; format: functional
# Escherichia coli [24] = experiment: Antibacterial activity against Escherichia coli clinical isolate ECJH5 assessed as diameter of zone of inhibition by disk diffusion assay; format: functional
# [25] = Hemolytic activity in human RBC assessed as hemolysis upto 500 ug/ml incubated for 1 hr by absorbance based analysis; format: toxicity, cell-based, Erythrocyte; settings: red blood cells (RBC), up to 500 µg/mL, read-out: Activity
# Escherichia coli [26] = experiment: Antibacterial activity against Escherichia coli clinical isolate ECJH14 assessed as diameter of zone of inhibition by disk diffusion assay; format: functional
# Escherichia coli [27] = experiment: Antibacterial activity against Escherichia coli clinical isolate ECJH20 assessed as diameter of zone of inhibition by disk diffusion assay; format: functional
# Escherichia coli [28] = experiment: Antibacterial activity against Escherichia coli clinical isolate ECJH3 assessed as diameter of zone of inhibition by disk diffusion assay; format: functional
# Escherichia coli [29] = experiment: Antibacterial activity against Escherichia coli clinical isolate ECJH18 assessed as diameter of zone of inhibition by disk diffusion assay; format: functional
# Escherichia coli [30] = experiment: Antibacterial activity against Escherichia coli clinical isolate ECJH17 assessed as diameter of zone of inhibition by disk diffusion assay; format: functional
# Escherichia coli [31] = experiment: Antibacterial activity against Escherichia coli clinical isolate ECJH15 assessed as diameter of zone of inhibition by disk diffusion assay; format: functional
# Escherichia coli [32] = experiment: Antibacterial activity against Escherichia coli clinical isolate ECJH1 assessed as diameter of zone of inhibition by disk diffusion assay; format: functional
# Escherichia coli [33] = experiment: Antibacterial activity against Escherichia coli clinical isolate ECJH19 assessed as diameter of zone of inhibition by disk diffusion assay; format: functional
# [34] = Hemolytic activity in human RBC assessed as hemolysis at 1000 ug/ml incubated for 1 hr by absorbance based analysis; format: toxicity, cell-based, Erythrocyte; settings: red blood cells (RBC), at 1000 µg/mL, read-out: Activity
# Escherichia coli [35] = experiment: Bacteriostatic activity against Escherichia coli MTCC 443 assessed as reduction in bacterial growth at 0.5 to 2 times MIC measured upto 24 hrs by absorbance based assay; format: functional, organism-based
# Escherichia coli [36] = experiment: Antibacterial activity against Escherichia coli clinical isolate ECJH21 assessed as diameter of zone of inhibition by disk diffusion assay; format: functional
# Escherichia coli [37] = experiment: Antibacterial activity against Escherichia coli clinical isolate ECJH13 assessed as diameter of zone of inhibition by disk diffusion assay; format: functional
# Escherichia coli [38] = experiment: Antibacterial activity against Escherichia coli clinical isolate ECJH22 assessed as diameter of zone of inhibition by disk diffusion assay; format: functional
# Escherichia coli [39] = experiment: Antibacterial activity against Escherichia coli clinical isolate ECJH7 assessed as diameter of zone of inhibition by disk diffusion assay; format: functional
# Escherichia coli [40] = experiment: Antibacterial activity against Escherichia coli clinical isolate ECJH24 assessed as diameter of zone of inhibition by disk diffusion assay; format: functional
# Staphylococcus aureus [41] = experiment: Antibacterial activity against Staphylococcus aureus MTCC 902 assessed as diameter of zone of inhibition at 0.5 times MIC incubated overnight by disk diffusion method; format: functional
# Escherichia coli [42] = experiment: Antibacterial activity against Escherichia coli clinical isolate ECJH12 assessed as diameter of zone of inhibition by disk diffusion assay; format: functional
# Escherichia coli [43] = experiment: Antibacterial activity against Escherichia coli clinical isolate ECJH25 assessed as diameter of zone of inhibition by disk diffusion assay; format: functional
# Bacillus subtilis [44] = experiment: Antibacterial activity against Bacillus subtilis MTCC 736 assessed as diameter of zone of inhibition at 0.5 times MIC incubated overnight by disk diffusion method; format: functional
smiles,measurement,setting,value
Clc1ccc2c(NCC/N=C/c3ccc4ccccc4n3)ccnc2c1,inhibition at 200 µg/mL,Enterococcus faecalis [1],100%
same,zone of inhibition at 500 µg/mL,Escherichia coli [2],11 mm
same,zone of inhibition at 500 µg/mL,Pseudomonas aeruginosa [3],10 mm
same,Ratio,Enterococcus faecalis [4],2
same,inhibition at 200 µg/mL,Bacillus subtilis [5],100%
same,zone of inhibition at 500 µg/mL,Staphylococcus aureus [6],8 mm
same,fractional inhibitory concentration index (FICI),Escherichia coli [7],0.281
same,Activity,Escherichia coli [8],Active
same,inhibition at 200 µg/mL,Pseudomonas aeruginosa [9],100%
same,MIC,Pseudomonas aeruginosa [10],256 µg/mL
same,inhibition at 200 µg/mL,Staphylococcus aureus [11],100%
same,fractional inhibitory concentration index (FICI),Bacillus subtilis [12],1.25
same,zone of inhibition at 500 µg/mL,Bacillus subtilis [13],10 mm
O=[N+]([O-])c1ccccc1/C=N/CCNc1ccnc2cc(Cl)ccc12,diameter of the inhibition zone (DIZ),Escherichia coli [14],11 mm
same,diameter of the inhibition zone (DIZ),Escherichia coli [15],9 mm
same,diameter of the inhibition zone (DIZ),Escherichia coli [16],11 mm
same,diameter of the inhibition zone (DIZ),Escherichia coli [17],10 mm
same,diameter of the inhibition zone (DIZ),Escherichia coli [18],10 mm
same,diameter of the inhibition zone (DIZ),Pseudomonas aeruginosa [19],7 mm
same,diameter of the inhibition zone (DIZ),Escherichia coli [20],11 mm
same,diameter of the inhibition zone (DIZ),Escherichia coli [21],11 mm
same,diameter of the inhibition zone (DIZ),Escherichia coli [22],10 mm
same,diameter of the inhibition zone (DIZ),Escherichia coli [23],13 mm
same,diameter of the inhibition zone (DIZ),Escherichia coli [24],12 mm
same,zone of inhibition at 500 µg/mL,Escherichia coli [2],11 mm
same,hemolysis at 1 h,[25],< 10%
same,zone of inhibition at 500 µg/mL,Pseudomonas aeruginosa [3],11 mm
same,diameter of the inhibition zone (DIZ),Escherichia coli [26],12 mm
same,Ratio,Enterococcus faecalis [4],2
same,diameter of the inhibition zone (DIZ),Escherichia coli [27],10 mm
same,diameter of the inhibition zone (DIZ),Escherichia coli [28],10 mm
same,diameter of the inhibition zone (DIZ),Escherichia coli [29],11 mm
same,zone of inhibition at 500 µg/mL,Staphylococcus aureus [6],10 mm
same,fractional inhibitory concentration index (FICI),Escherichia coli [7],0.124
same,diameter of the inhibition zone (DIZ),Escherichia coli [30],8 mm
same,Activity,Escherichia coli [8],Active
same,diameter of the inhibition zone (DIZ),Escherichia coli [31],11 mm
same,diameter of the inhibition zone (DIZ),Escherichia coli [32],11 mm
same,diameter of the inhibition zone (DIZ),Escherichia coli [33],10 mm
same,"hemolysis at 1 h, 1000 ug/ml",[34],< 20%
same,Activity,Escherichia coli [35],Active
same,diameter of the inhibition zone (DIZ),Escherichia coli [36],8 mm
same,MIC,Pseudomonas aeruginosa [10],128 µg/mL
same,diameter of the inhibition zone (DIZ),Escherichia coli [37],11 mm
same,diameter of the inhibition zone (DIZ),Escherichia coli [38],9 mm
same,diameter of the inhibition zone (DIZ),Escherichia coli [39],10 mm
same,fractional inhibitory concentration index (FICI),Bacillus subtilis [12],0.5
same,diameter of the inhibition zone (DIZ),Escherichia coli [40],13 mm
same,diameter of the inhibition zone (DIZ),Staphylococcus aureus [41],8 mm
same,diameter of the inhibition zone (DIZ),Escherichia coli [42],12 mm
same,zone of inhibition at 500 µg/mL,Bacillus subtilis [13],12 mm
same,diameter of the inhibition zone (DIZ),Escherichia coli [43],11 mm
same,diameter of the inhibition zone (DIZ),Bacillus subtilis [44],8 mm
